In brackets after ≈: the same amount, converted by molar mass. Blank lines part the entries; values can stand above or below the compound they belong to. Activity calls are given as the source filed them. The calls are words filed in the database; no cut-off is given here.
Tests used:
Giardia intestinalis [1] = test: […] activity against Giardia intestinalis ATCC 30888 at 10 ug/mL after 48 hrs by XTT assay; assay type: functional, organism-based; conditions: Giardia duodenalis
Giardia intestinalis [2] = test: […] activity against Giardia intestinalis ATCC 30888 after 48 hrs by XTT assay; assay type: functional, organism-based; conditions: Giardia duodenalis
Giardia intestinalis [3] = test: […] activity against Giardia intestinalis infected in C57B mouse assessed as increase in disease cure rate at 10 mg/day administered 3 day postinfection for 4 days; assay type: functional, organism-based; conditions: Giardia duodenalis
Giardia intestinalis [4] = test: […] activity against Giardia intestinalis infected in C57B mouse assessed as intestinal motile trophozoites count at 10 mg/day administered 3 day postinfection for 4 days; assay type: functional, Giardia duodenalis
Mus musculus [5] = test: Toxicity in C57B mouse assessed as induction of adverse effect on gross behavior at 40 mg/kg, po administered once daily for 3 days; assay type: organism-based; design: dose 40 mg/kg, route oral; conditions: in vivo, 72 h
Mus musculus [6] = test: Toxicity in C57B mouse assessed as induction of adverse grooming behavior at 40 mg/kg, po administered once daily for 3 days; assay type: organism-based; design: dose 40 mg/kg, route oral; conditions: in vivo, 72 h
Giardia intestinalis [7] = test: […] activity against Giardia intestinalis ATCC 30888 assessed as impairment of parasite motility after 4 hrs; assay type: functional, organism-based; conditions: Giardia duodenalis
Vero = test: Cytotoxicity against african green monkey Vero cells up to 50 ug/mL after 48 hrs by neutral red dye assay; assay type: cell-based; conditions: chlorocebus sabaeus
Mus musculus [8] = test: Toxicity in C57B mouse assessed as induction of adverse effect on appearance at 40 mg/kg, po administered once daily for 3 days; assay type: organism-based; design: dose 40 mg/kg, route oral; conditions: in vivo, 72 h
Giardia intestinalis [9] = test: […] activity against Giardia intestinalis infected in C57B mouse assessed as decrease in intestinal parasite load at 10 mg/day administered 3 day postinfection for 4 days; assay type: functional, organism-based; conditions: Giardia duodenalis
Mus musculus [10] = test: Toxicity in C57B mouse assessed as adverse effect on body weight at 40 mg/kg, po administered once daily for 3 days; assay type: organism-based; design: dose 40 mg/kg, route oral; conditions: in vivo, 72 h
Trichomonas [11] = test: Antimicrobial activity against Trichomonas up to 25 ug/mL; assay type: functional, organism-based
Giardia intestinalis [12] = test: […] activity against Giardia intestinalis ATCC 30888 assessed as impairment of parasite motility after 2 hrs; assay type: functional, organism-based; conditions: Giardia duodenalis
Mus musculus [13] = test: Toxicity in C57B mouse assessed as induction of adverse feeding behavior at 40 mg/kg, po administered once daily for 3 days; assay type: organism-based; design: dose 40 mg/kg, route oral; conditions: in vivo, 72 h
Giardia intestinalis [14] = test: Antifungal activity against Giardia intestinalis; assay type: functional, organism-based; conditions: Giardia duodenalis
Trichomonas [15] = test: Antimicrobial activity against Trichomonas; assay type: functional, organism-based

SMILES: COc1cc2c(=O)c(-c3ccc(O)cc3)coc2cc1O
Activity (Giardia intestinalis [1]): inactive

SMILES: O=c1c(-c2ccc3c(c2)OCO3)coc2cc(O)ccc12 [PSEUDOBAPTOGENIN]
IC50 (Giardia intestinalis [2]): 0.56 µg/mL (≈ 1.98 µM)

SMILES: COc1ccc(-c2coc3cc(O)c(OC)cc3c2=O)cc1O
Activity (Giardia intestinalis [1]): inactive

IC50 (Giardia intestinalis [7]): < 1 µg/mL | IC50 (Giardia intestinalis [12]): < 1 µg/mL
SMILES: COc1ccc(-c2coc3cc(O)ccc3c2=O)cc1 [FORMONONETIN]
Activity (Giardia intestinalis [3]): Active | Activity (Giardia intestinalis [4]): 0.1 | Activity (Mus musculus [5]): Non-toxic | Activity (Mus musculus [6]): Non-toxic | Activity (Vero): Non-toxic | Activity (Mus musculus [8]): Non-toxic | Activity (Giardia intestinalis [9]): Active | IC50 (Giardia intestinalis [2]): 0.03 µg/mL (≈ 0.112 µM) | Activity (Mus musculus [10]): Non-toxic | Activity (Trichomonas [11]): Active | Activity (Mus musculus [13]): Non-toxic

SMILES: COc1ccc(-c2coc3cc(O)c(OC)cc3c2=O)cc1 [CASTANIN]
IC50 (Giardia intestinalis [2]): > 5 µg/mL

IC50 (Giardia intestinalis [14]): < 1 µg/mL
SMILES: Oc1cc(O)c2c(c1)O[C@H](c1ccc(O)c(O)c1)[C@H](O)C2 [(-)-EPICATECHIN]

SMILES: COc1cc2c(cc1-c1coc3cc(O)ccc3c1=O)OCO2 [CUNEATIN]
IC50 (Giardia intestinalis [2]): > 10 µg/mL | Activity (Giardia intestinalis [1]): inactive

SMILES: COc1ccc(-c2coc3cc(O)cc(O)c3c2=O)cc1 [BIOCHANIN]
IC50 (Giardia intestinalis [2]): 3.5 µg/mL (≈ 12.3 µM)

SMILES: O=c1c(-c2ccc(O)cc2)coc2cc(O)ccc12 [DAIDZEIN]
IC50 (Giardia intestinalis [2]): 3.75 µg/mL (≈ 14.7 µM)

SMILES: COc1cc2c(=O)c(-c3ccc4c(c3)OCO4)coc2cc1O [FUJIKINETIN]
IC50 (Giardia intestinalis [2]): 1.5 µg/mL (≈ 4.8 µM)

SMILES: O=c1c(-c2ccc(O)cc2)coc2cc(O)cc(O)c12 [GENISTEIN]
IC50 (Giardia intestinalis [2]): > 5 µg/mL

SMILES: Cc1ncc([N+](=O)[O-])n1CCO [METRONIDAZOLE]
Activity (Giardia intestinalis [7]): inactive | Activity (Trichomonas [15]): Active | IC50 (Giardia intestinalis [2]): 0.1 µg/mL (≈ 0.584 µM) | Activity (Giardia intestinalis [12]): inactive
